Test results taken from ChEMBL document CHEMBL1201862, “PubChem BioAssay data set” (2004).
Active and inactive are the calls of the source.

How the values were obtained:
[1] = target: T1, Oxysterols receptor LXR-beta (Homo sapiens, UniProt P55055); assay type: functional, cell-based;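 also: Cell-based luminescence dose-response assay of agonist activity at LXR, run as a confirmatory counterscreen to a daf-12 agonist screen; agonist potency from rising luciferase signal of a Gal4-LXR reporter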
T1 sequence (P55055 whole entry): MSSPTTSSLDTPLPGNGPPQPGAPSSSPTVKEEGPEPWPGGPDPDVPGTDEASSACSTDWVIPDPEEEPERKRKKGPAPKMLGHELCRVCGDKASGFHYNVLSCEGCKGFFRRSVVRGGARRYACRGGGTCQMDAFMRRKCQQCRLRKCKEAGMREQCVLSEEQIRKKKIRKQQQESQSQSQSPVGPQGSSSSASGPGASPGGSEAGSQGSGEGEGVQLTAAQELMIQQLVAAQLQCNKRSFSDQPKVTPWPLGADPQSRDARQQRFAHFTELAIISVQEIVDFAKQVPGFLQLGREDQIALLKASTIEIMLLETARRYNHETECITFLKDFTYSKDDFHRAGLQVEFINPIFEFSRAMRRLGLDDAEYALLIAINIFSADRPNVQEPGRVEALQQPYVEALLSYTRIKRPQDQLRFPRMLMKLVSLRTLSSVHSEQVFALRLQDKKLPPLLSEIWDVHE

[2] = Luminescence-based cell-based high throughput dose response assay to identify activators of the DAF-12 from the parasite S. stercoralis (ssDAF-12).; assay type: functional
[3] = target: T1, Oxysterols receptor LXR-beta; test: LXR agonists, Gal4 luciferase reporter, dose response, counter-screen for ssDAF-12 agonist project, cell-based, luminescence, HEK293, S. stercoralis campaign (AID 720737); assay type: functional; conditions: read-out: IC50 (the source's name)
Protein skinhead-1 = target: T2, Protein skinhead-1 (Caenorhabditis elegans, UniProt P34707); assay type: functional
T2 sequence (P34707 whole entry): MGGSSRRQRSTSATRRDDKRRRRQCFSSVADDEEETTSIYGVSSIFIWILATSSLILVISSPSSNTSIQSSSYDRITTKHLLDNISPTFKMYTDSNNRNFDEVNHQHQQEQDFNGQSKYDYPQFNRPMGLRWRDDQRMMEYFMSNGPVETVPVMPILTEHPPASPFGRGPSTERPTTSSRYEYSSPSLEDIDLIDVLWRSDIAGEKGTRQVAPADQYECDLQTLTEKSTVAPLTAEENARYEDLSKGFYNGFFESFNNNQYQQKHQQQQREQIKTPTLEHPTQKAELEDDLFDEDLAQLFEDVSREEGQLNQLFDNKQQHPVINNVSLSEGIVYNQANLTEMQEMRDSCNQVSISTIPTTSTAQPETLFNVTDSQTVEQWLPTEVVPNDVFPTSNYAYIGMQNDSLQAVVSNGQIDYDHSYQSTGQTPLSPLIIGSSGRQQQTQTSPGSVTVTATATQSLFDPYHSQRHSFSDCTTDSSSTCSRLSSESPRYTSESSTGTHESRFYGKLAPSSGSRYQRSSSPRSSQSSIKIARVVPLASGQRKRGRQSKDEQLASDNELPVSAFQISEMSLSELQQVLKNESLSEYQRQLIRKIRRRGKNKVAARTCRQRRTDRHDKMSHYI

Cytochrome P450 2C9 = Cytochrome P450 2C9 (Homo sapiens, UniProt P11712)
Cytochrome P450 2C9, sequence (P11712 whole entry): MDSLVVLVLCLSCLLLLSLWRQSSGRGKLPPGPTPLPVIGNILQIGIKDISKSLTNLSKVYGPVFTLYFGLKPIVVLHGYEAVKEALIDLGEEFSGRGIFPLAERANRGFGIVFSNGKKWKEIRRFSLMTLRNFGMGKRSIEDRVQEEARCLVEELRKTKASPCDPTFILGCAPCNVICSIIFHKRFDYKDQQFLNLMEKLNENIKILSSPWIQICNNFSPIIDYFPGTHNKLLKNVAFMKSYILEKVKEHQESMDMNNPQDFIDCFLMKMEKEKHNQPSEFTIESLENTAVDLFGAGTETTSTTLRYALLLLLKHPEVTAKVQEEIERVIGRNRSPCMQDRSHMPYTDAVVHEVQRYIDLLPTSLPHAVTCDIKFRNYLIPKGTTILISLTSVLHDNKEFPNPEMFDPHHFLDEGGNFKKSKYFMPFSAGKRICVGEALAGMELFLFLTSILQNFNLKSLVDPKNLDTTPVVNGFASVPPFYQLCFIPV

Protein Tat = target: T3, Protein Tat (Human immunodeficiency virus type 1 group M subtype B (isolate HXB2)(HIV-1), UniProt P04608); assay type: functional;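 also: tat binding to TAR RNA read out by fluorescence polarization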
T3 sequence (P04608 whole entry): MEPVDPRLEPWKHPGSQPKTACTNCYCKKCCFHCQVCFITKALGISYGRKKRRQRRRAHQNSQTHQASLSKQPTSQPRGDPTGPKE

Vero = test: viability of Vero cells under compound – cytotoxicity control for flavivirus capping enzyme inhibitors (AID 588742); assay type: functional; conditions: Chlorocebus sabaeus
[4] = viability loss in THP-1 monocytes – THP-1 cells, cytotoxicity control for Vif-APOBEC3G degradation inhibitor project, dose response (AID 1117359); assay type: functional; conditions: THP-1
Cytochrome P450 2D6 = Cytochrome P450 2D6 (Homo sapiens, UniProt P10635);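 also: CYP2D6 member of a cytochrome P450 panel assay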
Cytochrome P450 2D6, sequence (P10635 whole entry): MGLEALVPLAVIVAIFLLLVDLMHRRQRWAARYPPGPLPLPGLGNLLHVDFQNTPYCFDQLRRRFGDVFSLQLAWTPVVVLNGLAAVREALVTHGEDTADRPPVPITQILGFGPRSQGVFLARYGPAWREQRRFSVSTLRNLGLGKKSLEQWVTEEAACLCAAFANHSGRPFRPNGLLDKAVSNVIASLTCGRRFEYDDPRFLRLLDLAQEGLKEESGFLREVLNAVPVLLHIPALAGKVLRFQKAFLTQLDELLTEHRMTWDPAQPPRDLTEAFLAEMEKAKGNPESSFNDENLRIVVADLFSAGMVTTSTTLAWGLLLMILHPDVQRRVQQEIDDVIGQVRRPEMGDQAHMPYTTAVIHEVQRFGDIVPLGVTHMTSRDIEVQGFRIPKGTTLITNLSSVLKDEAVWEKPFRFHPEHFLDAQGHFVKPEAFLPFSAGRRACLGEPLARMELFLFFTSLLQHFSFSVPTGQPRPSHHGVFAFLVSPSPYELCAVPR

**Q.** Which EC50 [1] does the source give for `Fc1ccc(-c2nc3n(n2)Cc2ccccc2-3)cc1` here?
**A.** Its EC50 is > 67.6 µM (inactive).

**Q.** What about the IC50 [2] of the same compound?
**A.** The IC50 was > 67.6 µM (inactive).

**Q.** And the EC50 (cells)?
**A.** The EC50 was > 67.6 µM (inactive).

**Q.** What about the EC50 [3] of the same compound?
**A.** The EC50 was > 67.6 µM (inactive).

**Q.** Which results are given for `O=C(/C=C/c1cccs1)N1CCc2ccccc21`?
**A.** EC50 [1]: > 67.5 µM (inactive); IC50 [2]: > 67.5 µM (inactive); EC50 (cells): > 67.5 µM (inactive); IC50 (Protein skinhead-1): > 100 µM (inactive); EC50 [3]: > 67.5 µM (inactive)

**Q.** Which results are given for `O=C(O)c1cccc(N2C(=O)c3ccc(C(=O)c4cccc([N+](=O)[O-])c4)cc3C2=O)c1`?
**A.** IC50 [2]: > 67.5 µM (inactive); EC50 [3]: > 67.5 µM (inactive)

**Q.** Which AC50 (Cytochrome P450 2C9) does the source give for `CN=c1ccc(Br)cc(C(=O)/C=C/c2ccc3c(c2)OCO3)c1O` here?
**A.** Its AC50 is “inconclusive”.

**Q.** And the IC50 (Protein Tat)?
**A.** The IC50 was 40.7 µM (inconclusive).

**Q.** And the CC50 (Vero)?
**A.** The CC50 was > 40 µM (active).

**Q.** And the CC50 [4]?
**A.** The CC50 was > 40 µM (active).

**Q.** And the AC50 (Cytochrome P450 2D6)?
**A.** The AC50 was 10 µM (inconclusive).
